Bridge positions count the residues as written; N and C are the ends. Ends that are not written are not given here.
Columns and labels:
[1] = literature values, Monikawa et al.; cited from earlier work
[2] = system: serum calcium concentration; experiment: Biological assay of calcitonin analogs in vivo: reduction of serum calcium concentration, 2×2 parallel line assay against synthetic salmon calcitonin standard; conditions: rats, subcutaneous injection, blood withdrawn 1 hour later, vs synthetic salmon calcitonin standard
Method: Biological Assay Of Calcitonin Analogs In Vivo
The biological potency of Ser^6, des-Leu^19 -salmon calcitonin was determined by comparing the reduction of serum calcium concentration which followed administration by graded doses of Ser^6, des-Leu^19 SCT and synthetic salmon calcitonin standard. Rats were divided into four groups of seven animals, and each group was assigned at random to a dose of standard or test solution. Low and high doses where chosen from the linear portion of the dose-response curve. For the salmon calcitonin standard, the values were 0.7 and 2.1 ng. peptide/100 g. body weight (BW). This dose approximates 3 and 9 MU/100 g. BW. Peptides were given by subcutaneous injection (0.2 ml/100 g. BW) and blood was withdrawn 1 hour later for serum calcium determination. Sera are processed and analyzed within two hours of collection. […]. Results were analyzed by a 2×2 parallel line assay [Gaddum, J. H., J. Pharm. Pharmacol., 5, 345 (1953)]. The standard salmon calcitonin used was independently determined to contain greater than 4,000 IU/mg. Ser^6,des-Leu^19 -SCT assayed at 8400 IU/mg.

Row | Substance | hypocalcemic potency [1] | biological potency (reduction of serum calcium concentration) [2] [IU/mg]
1 | eel calcitonin (CSNLSTCVLGKLSQELHKLQTYPRTDVGAGTP-NH2; disulfide 1-7; ends not checked; UniProt P01262 1-32, looked up) [synthetic eel calcitonin, synthetic eel calcitonin from Monikawa et al] | around 4300 IU/mg | –
2 | 6-serine, des-19-leucine-salmon calcitonin [Ser^6,des-Leu^19 -SCT] | – | 8400
3 | (1,7-α-L-aminosuberic acid)eel calcitonin | about 3400 IU/mg | –

— US4632978A, “6-serine, des-19-leucine calcitonin” (Armour Pharmaceutical Corp., priority 1985, dated 1986)
